Measured values reported in ChEMBL document CHEMBL1201862, “PubChem BioAssay data set” (2004).
The source made the active and inactive calls.

Assays:
Format in all cases: functional
[1] = target: T1, Protein RecA (Mycobacterium tuberculosis, UniProt P9WHJ3); assay: Fluorescence Cell-Free Homogeneous Dose Retest to Identify Inhibitors of RecA-Intein Splicing Activity. [Related pubchem assays (depositor defined):AID2097, AID2223, AID489010, AID492950]
T1 sequence (P9WHJ3 whole entry): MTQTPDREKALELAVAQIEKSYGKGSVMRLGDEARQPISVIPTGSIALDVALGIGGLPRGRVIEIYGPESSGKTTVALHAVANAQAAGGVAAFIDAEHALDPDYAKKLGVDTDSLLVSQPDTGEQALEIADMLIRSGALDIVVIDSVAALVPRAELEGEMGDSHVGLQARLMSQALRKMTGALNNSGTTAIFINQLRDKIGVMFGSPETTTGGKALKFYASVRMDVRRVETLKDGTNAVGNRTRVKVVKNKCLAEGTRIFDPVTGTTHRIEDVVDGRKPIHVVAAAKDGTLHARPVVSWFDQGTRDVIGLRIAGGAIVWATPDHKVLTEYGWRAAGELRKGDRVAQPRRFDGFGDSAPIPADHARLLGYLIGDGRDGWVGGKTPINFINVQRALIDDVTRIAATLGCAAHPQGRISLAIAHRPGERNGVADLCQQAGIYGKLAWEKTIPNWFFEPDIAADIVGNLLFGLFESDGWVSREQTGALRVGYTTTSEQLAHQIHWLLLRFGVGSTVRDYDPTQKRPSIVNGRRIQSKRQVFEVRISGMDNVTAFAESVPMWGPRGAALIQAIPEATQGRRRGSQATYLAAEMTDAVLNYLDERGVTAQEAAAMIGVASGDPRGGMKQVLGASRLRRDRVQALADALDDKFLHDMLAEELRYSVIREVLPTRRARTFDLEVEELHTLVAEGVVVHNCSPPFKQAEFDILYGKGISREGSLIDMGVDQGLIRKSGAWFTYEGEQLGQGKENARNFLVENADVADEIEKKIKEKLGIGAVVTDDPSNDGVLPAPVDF

[2] = target: T2, Replicative DNA helicase DnaB (Mycobacterium tuberculosis, UniProt P9WMR3); assay: DnaB intein splicing inhibitors, dose response, biochemical, cell-free fluorescence (AID 449749)
T2 sequence (P9WMR3 whole entry): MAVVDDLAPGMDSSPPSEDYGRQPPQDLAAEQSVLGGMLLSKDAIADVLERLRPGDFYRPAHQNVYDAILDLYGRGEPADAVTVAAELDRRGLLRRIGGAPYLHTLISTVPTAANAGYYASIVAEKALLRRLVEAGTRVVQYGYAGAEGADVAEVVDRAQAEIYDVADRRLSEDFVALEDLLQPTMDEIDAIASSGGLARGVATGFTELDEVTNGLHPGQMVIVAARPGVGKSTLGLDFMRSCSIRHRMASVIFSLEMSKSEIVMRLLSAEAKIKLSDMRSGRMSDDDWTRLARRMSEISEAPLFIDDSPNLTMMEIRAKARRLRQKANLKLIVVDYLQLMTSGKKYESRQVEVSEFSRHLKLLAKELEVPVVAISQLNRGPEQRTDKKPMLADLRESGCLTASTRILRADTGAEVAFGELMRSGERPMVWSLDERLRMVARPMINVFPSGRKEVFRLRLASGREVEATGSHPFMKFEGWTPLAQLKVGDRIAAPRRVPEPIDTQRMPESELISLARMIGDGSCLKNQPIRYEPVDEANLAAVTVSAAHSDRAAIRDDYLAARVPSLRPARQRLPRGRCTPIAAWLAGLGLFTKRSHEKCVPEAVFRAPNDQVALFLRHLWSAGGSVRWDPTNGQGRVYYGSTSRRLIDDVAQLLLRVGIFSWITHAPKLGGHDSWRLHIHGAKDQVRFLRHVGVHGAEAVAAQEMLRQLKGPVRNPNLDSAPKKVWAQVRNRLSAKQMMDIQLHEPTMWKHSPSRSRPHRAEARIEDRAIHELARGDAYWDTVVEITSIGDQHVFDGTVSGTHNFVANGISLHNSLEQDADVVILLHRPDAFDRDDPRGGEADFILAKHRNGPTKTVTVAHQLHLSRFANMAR

[3] = Intein inhibitors as potential Tuberculosis drugs, a cytotoxicity screen. [Related pubchem assays (depositor defined):AID2221, AID2223, AID434968, AID435010, AID449749, AID449750, AID489010]
[4] = nonselective inhibitors of cellular cAMP signaling, dose response, counter-screen for MC4R biased antagonist project, cell-based, TR-FRET cAMP detection (AID 602305);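 further: U2OS cells stimulated with forskolin near its EC80 as the cAMP inducer; potency is for inhibition of forskolin-stimulated cAMP signaling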
[5] = target: G-protein coupled receptor 55 (Homo sapiens, UniProt Q9Y2T6); assay: GPR55 agonists via beta-arrestin recruitment, primary screen, imaging, U2OS cells, beta-arrestin-GFP redistribution (AID 1961)
[6] = target: Melanocortin receptor 4 (Homo sapiens, UniProt P32245); assay: MC4R antagonist potency on cAMP, dose response, cell-based, TR-FRET, biased antagonists (AID 602298);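 further: antagonist potency against agonist-stimulated cAMP production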
[7] = target: Mitogen-activated protein kinase 8 (Homo sapiens, UniProt P45983);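 further: value comes from one member of a kinome-wide kinase profiling panel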
[8] = target: Serine/threonine-protein kinase D3 (Homo sapiens, UniProt O94806);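 further: determined within a kinase panel screen, with PRKCN as the panel member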
[9] = target: Mitogen-activated protein kinase 9 (Homo sapiens, UniProt P45984);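 further: value from a kinome panel profiling assay, MAPK9 panel entry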
Sequence of Mitogen-activated protein kinase 9 (P45984 whole entry): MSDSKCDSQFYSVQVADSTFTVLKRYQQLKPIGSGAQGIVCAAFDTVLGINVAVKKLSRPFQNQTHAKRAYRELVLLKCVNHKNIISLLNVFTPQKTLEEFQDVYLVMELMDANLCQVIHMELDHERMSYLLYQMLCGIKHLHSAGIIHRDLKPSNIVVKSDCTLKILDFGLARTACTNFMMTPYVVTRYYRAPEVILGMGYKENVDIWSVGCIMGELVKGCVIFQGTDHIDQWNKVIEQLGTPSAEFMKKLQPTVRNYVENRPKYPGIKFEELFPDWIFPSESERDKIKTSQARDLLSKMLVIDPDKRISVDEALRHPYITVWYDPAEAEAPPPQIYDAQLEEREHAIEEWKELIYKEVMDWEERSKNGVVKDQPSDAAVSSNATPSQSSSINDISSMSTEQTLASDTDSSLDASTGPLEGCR

[10] = target: Mitogen-activated protein kinase kinase kinase kinase 4 (Homo sapiens, UniProt O95819)
Sequence of Mitogen-activated protein kinase kinase kinase kinase 4 (O95819 whole entry): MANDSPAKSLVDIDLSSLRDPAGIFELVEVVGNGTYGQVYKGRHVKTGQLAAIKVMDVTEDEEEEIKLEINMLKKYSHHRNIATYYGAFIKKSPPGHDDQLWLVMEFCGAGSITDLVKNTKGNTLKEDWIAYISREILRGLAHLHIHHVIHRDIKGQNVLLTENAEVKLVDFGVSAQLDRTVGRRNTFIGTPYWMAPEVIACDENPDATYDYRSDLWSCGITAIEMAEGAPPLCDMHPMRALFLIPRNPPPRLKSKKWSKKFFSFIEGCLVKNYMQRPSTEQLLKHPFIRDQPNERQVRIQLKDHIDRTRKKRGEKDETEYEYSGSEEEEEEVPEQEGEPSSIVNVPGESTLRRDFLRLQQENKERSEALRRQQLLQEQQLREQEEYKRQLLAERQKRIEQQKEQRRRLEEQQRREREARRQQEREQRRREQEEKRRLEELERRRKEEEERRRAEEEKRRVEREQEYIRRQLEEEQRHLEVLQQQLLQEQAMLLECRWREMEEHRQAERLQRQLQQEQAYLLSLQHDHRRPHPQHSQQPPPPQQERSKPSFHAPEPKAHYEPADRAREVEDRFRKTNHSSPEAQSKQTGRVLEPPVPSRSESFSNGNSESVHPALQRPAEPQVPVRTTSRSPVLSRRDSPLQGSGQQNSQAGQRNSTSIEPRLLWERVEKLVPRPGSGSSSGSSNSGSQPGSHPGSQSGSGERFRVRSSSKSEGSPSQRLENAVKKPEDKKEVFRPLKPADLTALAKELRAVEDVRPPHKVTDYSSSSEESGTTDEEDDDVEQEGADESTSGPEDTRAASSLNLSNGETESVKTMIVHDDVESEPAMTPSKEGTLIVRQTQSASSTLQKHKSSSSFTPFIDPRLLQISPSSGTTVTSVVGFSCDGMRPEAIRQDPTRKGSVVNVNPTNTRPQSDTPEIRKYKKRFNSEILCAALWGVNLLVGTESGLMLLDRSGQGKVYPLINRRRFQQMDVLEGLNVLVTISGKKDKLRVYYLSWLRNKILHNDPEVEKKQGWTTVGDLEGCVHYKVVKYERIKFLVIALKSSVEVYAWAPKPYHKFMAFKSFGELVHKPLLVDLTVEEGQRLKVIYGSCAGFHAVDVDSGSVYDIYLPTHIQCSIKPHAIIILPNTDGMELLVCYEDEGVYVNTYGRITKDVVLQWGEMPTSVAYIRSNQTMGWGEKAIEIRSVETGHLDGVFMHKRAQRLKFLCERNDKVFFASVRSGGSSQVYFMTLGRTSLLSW

[11] = target: cAMP-dependent protein kinase catalytic subunit alpha (Homo sapiens, UniProt P17612)
[12] = target: Glycogen synthase kinase-3 beta (Homo sapiens, UniProt P49841);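 further: value comes from a broad kinome profiling panel, with GSK3B as the panel member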
Sequence of Glycogen synthase kinase-3 beta (P49841 whole entry): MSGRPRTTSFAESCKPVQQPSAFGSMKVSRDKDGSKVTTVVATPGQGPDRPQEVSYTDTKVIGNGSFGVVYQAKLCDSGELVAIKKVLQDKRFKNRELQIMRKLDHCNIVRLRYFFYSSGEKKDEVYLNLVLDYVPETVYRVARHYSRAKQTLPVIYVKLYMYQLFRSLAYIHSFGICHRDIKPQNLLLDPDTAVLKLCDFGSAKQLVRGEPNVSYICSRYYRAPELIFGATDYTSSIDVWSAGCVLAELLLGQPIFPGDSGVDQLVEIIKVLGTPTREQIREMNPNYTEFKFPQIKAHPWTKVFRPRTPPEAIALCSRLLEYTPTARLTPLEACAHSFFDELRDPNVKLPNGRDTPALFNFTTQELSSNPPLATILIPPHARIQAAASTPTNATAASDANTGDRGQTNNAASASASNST

[13] = target: Homeodomain-interacting protein kinase 2 (Homo sapiens, UniProt Q9H2X6);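 further: measured within a kinome-wide kinase profiling panel, HIPK2 being one panel member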
[14] = target: Interleukin-1 receptor-associated kinase 4 (Homo sapiens, UniProt Q9NWZ3)
[15] = target: Cell division cycle 7-related protein kinase (Homo sapiens, UniProt O00311);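 further: value obtained from a kinome-wide kinase panel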
[16] = target: Serine/threonine-protein kinase pim-1 (Homo sapiens, UniProt P11309)
Sequence of Serine/threonine-protein kinase pim-1 (P11309 whole entry): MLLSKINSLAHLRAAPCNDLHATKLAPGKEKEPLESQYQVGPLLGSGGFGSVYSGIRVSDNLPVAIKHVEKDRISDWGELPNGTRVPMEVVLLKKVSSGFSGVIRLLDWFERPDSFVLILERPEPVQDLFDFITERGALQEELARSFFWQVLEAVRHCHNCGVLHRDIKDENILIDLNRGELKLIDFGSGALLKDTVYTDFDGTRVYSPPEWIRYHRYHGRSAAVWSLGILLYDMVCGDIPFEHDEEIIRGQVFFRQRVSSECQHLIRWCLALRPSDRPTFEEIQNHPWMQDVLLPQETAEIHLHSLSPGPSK

[17] = target: Vascular endothelial growth factor receptor 2 (Homo sapiens, UniProt P35968)
Sequence of Vascular endothelial growth factor receptor 2 (P35968 whole entry): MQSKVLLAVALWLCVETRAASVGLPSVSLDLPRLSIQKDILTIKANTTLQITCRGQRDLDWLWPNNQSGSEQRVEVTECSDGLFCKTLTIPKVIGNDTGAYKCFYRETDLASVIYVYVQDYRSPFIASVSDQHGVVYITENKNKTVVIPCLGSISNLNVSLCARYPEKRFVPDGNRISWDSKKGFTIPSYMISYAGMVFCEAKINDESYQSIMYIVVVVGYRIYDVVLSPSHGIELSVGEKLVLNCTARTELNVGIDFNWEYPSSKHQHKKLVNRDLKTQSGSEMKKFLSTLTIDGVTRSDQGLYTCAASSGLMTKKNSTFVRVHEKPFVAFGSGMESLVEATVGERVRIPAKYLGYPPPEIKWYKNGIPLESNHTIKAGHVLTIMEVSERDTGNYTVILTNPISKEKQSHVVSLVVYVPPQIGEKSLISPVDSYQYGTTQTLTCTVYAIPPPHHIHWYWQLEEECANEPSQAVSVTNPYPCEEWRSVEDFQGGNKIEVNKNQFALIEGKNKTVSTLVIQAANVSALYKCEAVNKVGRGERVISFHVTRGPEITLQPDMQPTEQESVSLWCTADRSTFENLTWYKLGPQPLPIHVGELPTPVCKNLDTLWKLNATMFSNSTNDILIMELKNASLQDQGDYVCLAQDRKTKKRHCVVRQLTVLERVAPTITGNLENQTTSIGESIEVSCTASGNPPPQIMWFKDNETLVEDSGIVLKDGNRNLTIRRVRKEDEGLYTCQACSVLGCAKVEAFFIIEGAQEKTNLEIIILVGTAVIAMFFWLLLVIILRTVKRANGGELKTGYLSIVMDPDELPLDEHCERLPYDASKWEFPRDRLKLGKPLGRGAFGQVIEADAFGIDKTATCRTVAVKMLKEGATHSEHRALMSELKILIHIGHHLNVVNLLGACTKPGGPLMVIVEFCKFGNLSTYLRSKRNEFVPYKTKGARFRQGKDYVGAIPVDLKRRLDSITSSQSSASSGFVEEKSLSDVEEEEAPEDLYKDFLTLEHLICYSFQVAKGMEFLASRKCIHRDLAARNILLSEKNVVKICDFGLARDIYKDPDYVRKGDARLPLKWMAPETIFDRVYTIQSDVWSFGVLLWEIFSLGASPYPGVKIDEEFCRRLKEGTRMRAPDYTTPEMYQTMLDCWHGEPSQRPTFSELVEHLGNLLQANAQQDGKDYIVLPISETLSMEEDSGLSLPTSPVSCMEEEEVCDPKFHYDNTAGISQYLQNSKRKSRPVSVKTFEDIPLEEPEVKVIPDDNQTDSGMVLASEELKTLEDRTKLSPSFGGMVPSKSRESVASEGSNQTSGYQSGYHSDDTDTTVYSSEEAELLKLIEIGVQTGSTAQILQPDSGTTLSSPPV

[18] = target: Aurora kinase B (Homo sapiens, UniProt Q96GD4)
[19] = target: Aurora kinase A (Homo sapiens, UniProt O14965);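 further: value from the Navigating the Kinome kinase panel profiling, panel entry STK6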
Sequence of Aurora kinase A (O14965 whole entry): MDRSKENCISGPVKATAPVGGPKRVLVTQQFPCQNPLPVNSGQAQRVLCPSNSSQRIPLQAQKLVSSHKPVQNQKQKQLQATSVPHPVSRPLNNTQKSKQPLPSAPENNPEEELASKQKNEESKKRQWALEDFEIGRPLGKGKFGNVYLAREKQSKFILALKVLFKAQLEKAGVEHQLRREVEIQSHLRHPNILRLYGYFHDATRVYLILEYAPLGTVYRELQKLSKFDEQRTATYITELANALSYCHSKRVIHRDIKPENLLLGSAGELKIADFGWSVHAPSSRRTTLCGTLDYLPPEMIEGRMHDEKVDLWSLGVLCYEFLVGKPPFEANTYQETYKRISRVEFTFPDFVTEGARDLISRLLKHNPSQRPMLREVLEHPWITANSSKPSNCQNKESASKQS

[20] = target: T3, Orexin receptor type 2 (Homo sapiens, UniProt O43614); assay: Counterscreen assay for antagonists of the orexin 1 receptor (OX1R; HCRTR1): Homogeneous Time Resolved Fluorescence (HTRF)-based cell-based dose response assay for antagonists of the orexin 2 receptor (OX2R; HCRTR2), run by assay provider.
T3 sequence (O43614 whole entry): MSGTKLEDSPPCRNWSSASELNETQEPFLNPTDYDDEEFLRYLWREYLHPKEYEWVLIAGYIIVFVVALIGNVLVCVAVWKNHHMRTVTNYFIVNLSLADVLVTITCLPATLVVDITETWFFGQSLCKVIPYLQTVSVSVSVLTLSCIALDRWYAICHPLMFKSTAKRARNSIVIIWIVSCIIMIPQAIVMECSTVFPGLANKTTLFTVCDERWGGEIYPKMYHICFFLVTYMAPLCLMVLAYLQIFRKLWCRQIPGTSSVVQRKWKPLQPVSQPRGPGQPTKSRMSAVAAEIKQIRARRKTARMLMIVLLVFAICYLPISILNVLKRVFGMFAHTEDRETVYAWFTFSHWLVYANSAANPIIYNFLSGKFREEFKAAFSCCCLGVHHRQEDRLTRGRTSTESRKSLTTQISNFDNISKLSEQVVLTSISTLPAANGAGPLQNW

[21] = target: T3, Orexin receptor type 2; assay: Counterscreen assay for antagonists of the orexin 1 receptor (OX1R; HCRTR1): Fluorescence-based cell-based dose response assay for antagonists of the orexin 2 receptor (OX2R; HCRTR2), run by assay provider.
[22] = test system: CHO-K1; assay: (§1) Counterscreen for antagonists of the orexin 1 receptor (OX1R; HCRTR1): Homogeneous time resolved fluorescence (HTRF)-based cell-based dose response assay to identify antagonists of the parental CHO-K1 cell line. [Related pubchem assays (depositor defined):AID434989, AID435008, AID463079, AID485270, AID492963, AID492964, AID492965, AID493232, AID504699, AID504701]; details: Cricetulus griseus
[23] = target: T4, Orexin/Hypocretin receptor type 1 (Homo sapiens, UniProt O43613); assay: (§2) Fluorescence-based cell-based high throughput dose response assay for antagonists of the orexin 1 receptor (OX1R; HCRTR1). [Related pubchem assays (depositor defined):AID434989, AID435008, AID463079, AID485270, AID492963, AID492964, AID492965, AID493232, AID504717, AID504718]
T4 sequence (O43613 whole entry): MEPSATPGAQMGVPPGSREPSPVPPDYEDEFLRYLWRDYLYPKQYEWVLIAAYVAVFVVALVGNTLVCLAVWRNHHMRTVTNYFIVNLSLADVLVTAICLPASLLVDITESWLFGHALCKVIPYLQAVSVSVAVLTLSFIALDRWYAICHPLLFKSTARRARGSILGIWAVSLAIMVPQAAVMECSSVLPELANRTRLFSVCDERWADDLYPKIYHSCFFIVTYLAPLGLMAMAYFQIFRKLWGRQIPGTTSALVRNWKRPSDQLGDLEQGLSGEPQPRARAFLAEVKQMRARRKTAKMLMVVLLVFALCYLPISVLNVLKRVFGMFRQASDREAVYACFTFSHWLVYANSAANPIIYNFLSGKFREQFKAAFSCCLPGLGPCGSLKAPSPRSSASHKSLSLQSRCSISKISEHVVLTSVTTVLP

[24] = as §1, with “Fluorescence-based” for “Homogeneous time resolved fluorescence (HTRF)-based”, “cell-based high throughput” for “cell-based”, “CHO” for “CHO-K1”
[25] = target: T4, Orexin/Hypocretin receptor type 1; assay: as §2, with “Homogeneous Time Resolved Fluorescence (HTRF)-based” for “Fluorescence-based”
[26] = target: Sphingosine 1-phosphate receptor 2 (Homo sapiens, UniProt O95136); assay: Late-stage fluorescence-based dose-response cell-based counterscreen assay to identify agonists of the Sphingosine 1-Phosphate Receptor 3 (S1P3): Sphingosine 1-Phosphate Receptor 2 (S1P2) agonist assay.
[27] = target: Sphingosine 1-phosphate receptor 4 (Homo sapiens, UniProt O95977); assay: Late-stage fluorescence-based dose-response cell-based counterscreen assay to identify agonists of the Sphingosine 1-Phosphate Receptor 3 (S1P3): Sphingosine 1-Phosphate Receptor 4 (S1P4) agonist assay.
Sequence of Sphingosine 1-phosphate receptor 4 (O95977 whole entry): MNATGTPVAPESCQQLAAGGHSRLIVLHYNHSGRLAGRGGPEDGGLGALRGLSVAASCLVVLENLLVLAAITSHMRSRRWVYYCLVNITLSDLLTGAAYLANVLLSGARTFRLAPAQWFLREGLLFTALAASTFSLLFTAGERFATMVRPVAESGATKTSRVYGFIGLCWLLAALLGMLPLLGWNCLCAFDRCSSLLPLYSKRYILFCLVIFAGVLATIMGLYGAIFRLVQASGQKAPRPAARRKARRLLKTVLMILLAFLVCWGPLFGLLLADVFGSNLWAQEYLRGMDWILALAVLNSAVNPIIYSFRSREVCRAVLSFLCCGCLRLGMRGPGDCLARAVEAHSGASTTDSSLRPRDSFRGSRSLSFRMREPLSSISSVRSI
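Wherever CC50 is given: cells exposed to compound for 72 hours before luminescence readout.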

With Cc1ccc2c(c1)c1c3n2CCN(C(=O)CCl)C3CCC1 (configuration not stated) the EC50 [1] was 1.19 µM (active), the AC50 [2] was 2.05 µM (active) and the CC50 [3] was 24.7 µM (active). The IC50 [4] was > 64.6 µM (inactive), the EC50 [5] was > 32 µM (inactive) and the IC50 [6] was > 64.6 µM (inactive).
In the case of CCOc1nc(NC(=O)C(C)C)cc(N)c1C#N, the Ki [7] was 1.26 µM (active) and the Ki [8] was 7.94 µM (active).
For CC(C)(C)c1cc(NC(=O)c2cc3ccccc3s2)n(-c2cccc(OCC(=O)O)c2)n1, the Ki [9] was 2 µM (active).
In the case of Cc1n[nH]c2ccc(-c3cncc(OCCNS(C)(=O)=O)c3)cc12, the Ki [10] was 79.4 nM (active), the Ki [11] was 6.31 µM (active) and the Ki [12] was 1 µM (active). For the same compound, the Ki [13] was 1 µM (active), the Ki [14] was 3.98 µM (active) and the Ki [15] was 63.1 nM (active). For the same compound, the Ki [16] was 5.01 µM (active).
In the case of O=S(=O)(Nc1ccc2c(c1)C(=NO)c1ccccc1-2)c1ccccc1F, the Ki [17] was 794 nM (active), the Ki [18] was 20 nM (active) and the Ki [19] was 794 nM (active).
With O=C(C1CCCN1S(=O)(=O)c1cccc2cccnc12)N1CCn2c1nc1ccccc12 (configuration not stated) the IC50 [20] was 9.68 µM (active), the IC50 [21] was > 88.8 µM (inactive) and the IC50 [22] was > 66.2 µM (inactive). The IC50 [23] was 3.36 µM (active), the IC50 [24] was > 49.7 µM (inactive) and the IC50 [25] was 153 nM (active).
For CCN(CC)C(=O)c1cc(C2CC2)on1, the EC50 [26] was > 50 µM (inactive) and the EC50 [27] was > 50 µM (inactive).
